# Read-outs that look alike come from different tables or passages of the source.
# Tests used:
# Solubility assay = details: pH 7.4, aqueous buffer, kinetic from dmso stock
# cells = details: Homo sapiens, DLD-1, 240 h
# [1] = Mouse PK assay after oral administration; details: for Time to peak / Area under curve (0-t; hr * ng/mL) / Peak concentration: mice, oral, administration dose 30 mg/kg
# [2] = mouse, microsomes
# [3] = target: T1, helicase domain of the Pol θ protein (Homo sapiens, UniProt O75417); experiment: Biochemical Activity Assay (ADP Glo Assay) of Pol θ inhibitor, ATPase activity
# T1 construct: The helicase domain of the Pol θ protein was purified from insect protein expression system; made in house; host or cells: insect protein expression system
# [4] = Metabolic stability of mouse liver microsome assay; details: liver microsomes, pH 7.4
# [5] = male, ICR, mouse, plasma, po, 30 mg/kg
# T1 sequence (O75417 102-554 limits assumed): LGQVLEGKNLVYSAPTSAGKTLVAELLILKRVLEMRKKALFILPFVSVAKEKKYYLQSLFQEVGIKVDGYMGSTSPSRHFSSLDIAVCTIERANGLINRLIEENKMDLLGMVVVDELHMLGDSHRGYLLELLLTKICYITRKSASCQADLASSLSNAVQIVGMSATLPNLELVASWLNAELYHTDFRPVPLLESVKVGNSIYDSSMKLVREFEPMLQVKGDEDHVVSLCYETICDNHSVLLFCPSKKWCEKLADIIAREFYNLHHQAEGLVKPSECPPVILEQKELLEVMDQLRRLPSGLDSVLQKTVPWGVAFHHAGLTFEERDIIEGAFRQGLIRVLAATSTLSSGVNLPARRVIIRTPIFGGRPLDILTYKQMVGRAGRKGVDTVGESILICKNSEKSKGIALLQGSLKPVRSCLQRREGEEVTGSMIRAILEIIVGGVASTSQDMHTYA
solubility at 2 h (Solubility assay; phosphate buffer) [µM],"MRT [1, 5] [h]","bioavailability [1, 5] [%]","half-life [1, 5] [h]","Half-life (T1/2, min) [2]","IC50 ([3]; ADP-Glo assay, ATPase activity of Pol θ helicase domain, ssDNA substrate; read-out: Biochemical assay IC50) [nM]",SMILES,"IC50 (cells; read-out: Cell viability assay IC50 (nM), CTG assay, CellTiter Glo, read on Day 10, cell line not given) [nM]",Time to peak [1] [h],Area under curve (0-t; hr * ng/mL) ([1]; plasma) [µg·h/mL],Peak concentration ([1]; plasma) [ng/mL],half-life at 1 µM [4] [h],solubility (Solubility assay; 0.1 m sodium phosphate buffer) [µM],IC50 (cells; read-out: Cell viability assay IC50 (nM)) [nM],"MRT ([1]; mouse, plasma, po, 30 mg/kg) [h]","half-life ([1]; mouse, plasma, po, 30 mg/kg) [h]","IC50 ([3]; read-out: Biochemical assay IC50; ADP-Glo assay, ATPase activity of Pol θ helicase domain, ssDNA substrate) [nM]"
82.6,3.95,259,2.16,∞,3.63,COc1cnc(Cl)c(F)c1-c1cc(C)ncc1C(=O)Nc1nc2cnc(-c3c(C)nnn3C)c(F)c2s1 [Example 217],< 1.52,0.67,852.39,156130,,,,,,
,,,,,,COc1cnc(Cl)cc1-c1cc(C)ncc1C(=O)Nc1nc2cnc(-c3c(C)noc3C)cc2s1 [Example 155],,1.0,321.917,43083,11.6,7.81,19.2,4.56,2.26,5.75

# — patent EP4585599A1, “NITROGEN-CONTAINING FUSED RING COMPOUND, INTERMEDIATE THEREOF, PREPARATION METHOD THEREFOR AND USE THEREOF” (Hangzhou Synrx Therapeutics Biomedical Technology Co., Ltd., priority 2022, dated 2024)
